Assay results from article PMC10652874, “Investigation into the mechanism of action of the antimicrobial peptide epilancin 15X” (Frontiers in Microbiology, 2023).

Tested on: S. carnosus TM300
Assay: RNAseq differential gene expression
Type: cell-based, Staphylococcus carnosus
Description: For the RNAseq experiments, epilancin was added at sub-lethal concentration (0.5x MIC) to S. carnosus TM300 once the cultures reached an OD600 of 0.6. RNA was extracted 40 min after the treatment, using a FastRNA Pro Blue kit (MP Biomedicals). Both treated and parallel untreated samples were collected at the same time. Sequencing was performed at the Carver Biotechnology Center (UIUC). For RNAseq analysis, gene counts were read in to R (v3.1.1; [Team, 2014]), and 14/2441 genes were removed because they had fewer than 32 total counts across the six samples. edgeR’s (v3.6.7) TMM normalization ([Robinson and Oshlack, 2010]) plus negative binomial generalized log-linear model ([McCarthy et al., 2012]) was used to test for differential expression between treated and untreated groups, while accounting for pairing of U and T replicates from three different cultures. p-values were adjusted using the false discovery rate method ([Benjamini and Hochberg, 1995]).

[1] = AraC family transcriptional regulator
[2] = S. carnosus TM300, 0.5x MIC, RNA extracted 40 min after treatment

Question: What does the source list for Epilancin 15X?
Answer: fold_change Sca_0118: 2.03; fold_change Sca_0226: 2.6; fold_change Sca_0277: 4.82; fold_change Sca_0326: 2.89; fold_change Sca_0702: 3.4; fold_change Sca_1839: 2.65; fold_change Sca_0283 (4-aminobutyrate aminotransferase): 2.6; fold_change Sca_1048 (5-bromo-4-chloroindolyl phosphate hydrolysis protein XpaC): 2.07; fold_change rpsN (30S ribosomal protein S14): 0.49; fold_change rplS (50S ribosomal protein L19): 0.5; fold_change Sca_1439 (ABC transporter ATP-binding protein): 2.23; fold_change Sca_0292 (ATP-binding cassette transporter A): 2.29; fold_change clpP (ATP-dependent Clp protease proteolytic subunit): 5.08; fold_change recG (ATP-dependent DNA helicase RecG): 2.72; fold_change Sca_0180 (ATP:guanido phosphotransferase): 4.91; fold_change Sca_0313 [1]: 2.06; fold_change Sca_0314 [1]: 2.39; fold_change Sca_0315 [1]: 2.4; fold_change Sca_0113 (ArsR family transcription regulator): 4.25; fold_change clpB (ClpB chaperone): 10.1; fold_change clpC (ClpC ATPase family protein): 4.95; fold_change dltA (D-alanine--poly(phosphoribitol) ligase subunit 1): 2.2; fold_change dltC (D-alanine--poly(phosphoribitol) ligase subunit 2): 2.03; fold_change dnaN (DNA polymerase III subunit beta): 2.14; fold_change dinB (DNA polymerase IV, gene dinP): 2.92; fold_change dltB (DltB membrane protein): 2.19; fold_change Sca_2272 (Glycerate kinase): 2.24; fold_change Sca_0776 (Glyoxalase family protein): 2.76; fold_change hslO (Hsp33-like chaperonin, gene hsp33): 2.39; fold_change Sca_0214 (LD-carboxypeptidase family protein): 0.5; fold_change lexA (LexA repressor): 2.01; fold_change Sca_0115 (LysR family transcriptional regulator): 2.11; fold_change moaD (MoaD): 2.46; fold_change moaE (MoaE): 2.53; fold_change mobB (MobB): 2.72; fold_change moaA (Molybdenum cofactor biosynthesis protein A): 2.82; fold_change nanA (N-acetylneuraminate lyase): 2.13; expression of vraR, upregulated compared to untreated control [2]: 8 fold; expression of vraS, upregulated compared to untreated control [2]: 8 fold; fold_change Sca_0453 (TOPRIM domain-containing protein): 3.05; fold_change Sca_2234 (TetR family transcriptional regulator): 2.13; fold_change Sca_2397 (ThiJ/PfpI family protein): 4.76; fold_change gtaB (UTP-glucose-1-phosphate uridyltransferase): 0.5; fold_change Sca_0065 (acetoin reductase): 4.35; fold_change mecA (adaptor protein, gene SCA_0598): 2.48; fold_change glpD (aerobic glycerol-3-phosphate dehydrogenase): 2.81; fold_change Sca_2335 (alcohol dehydrogenase, zinc-containing, gene gutB): 2.81; fold_change ahpC (alkyl hydroperoxide reductase subunit C): 5.8; fold_change ahpF (alkyl hydroperoxide reductase subunit F): 5.74; fold_change lrgB (antiholin-like protein LrgB): 5.42; fold_change capM (capsular polysaccharide synthesis enzyme Cap5M): 0.49; fold_change katA (catalase): 2.04; fold_change dnaJ (chaperone protein DnaJ): 2.06; fold_change uvrA (excinuclease ABC subunit A): 3.06; fold_change uvrB (excinuclease ABC subunit B): 3.63; fold_change uvrC (excinuclease ABC subunit C): 2.28; fold_change Sca_1475 (formate dehydrogenase): 2.72; fold_change fdh (formate dehydrogenase): 3.34; fold_change (gene SCA_0282 (thrS), threonyl-tRNA synthetase): 0.44; fold_change (gene Sca_0027 (ssb), putative single-strand DNA-binding protein): 0.48; fold_change (gene Sca_0095, putative autolysin with LysM domain): 0.47; fold_change (gene Sca_0210, Choloylglycine hydrolase family protein): 0.42; fold_change (gene Sca_0261, FecCD transport family protein): 0.48; fold_change (gene Sca_0273, putative lipoprotein, AdhesinB family protein): 0.41; fold_change (gene Sca_0274, putative ABC transporter permease): 0.44; fold_change (gene Sca_0348 (fruA), putative fructose specific permease): 0.49; fold_change (gene Sca_0374, putative proton-dependent oligopeptide transporter): 0.43; fold_change (gene Sca_0418, putative branched-chain amino acid transport system II carrier protein): 0.4; fold_change (gene Sca_0437 (csp), putative cold-shock protein): 0.43; fold_change (gene Sca_0445, hypothetical protein): 0.43; fold_change (gene Sca_0446, hypothetical protein): 0.45; fold_change (gene Sca_0547, cytosol aminopeptidase family protein): 0.42; fold_change (gene Sca_0617, hypothetical protein): 0.45; fold_change (gene Sca_0626, putative sodium transport protein): 0.4; fold_change (gene Sca_0661): 0.41; fold_change (gene Sca_0724, putative DNA binding protein): 0.44; fold_change (gene Sca_0743, hypothetical protein): 0.4; fold_change (gene Sca_0749, hypothetical protein): 0.48; fold_change (gene Sca_0919, hypothetical protein): 0.44; fold_change (gene Sca_0920, hypothetical protein): 0.46; fold_change (gene Sca_0975, putative amino acid permease): 0.46; fold_change (gene Sca_0984, hypothetical protein): 0.41; fold_change (gene Sca_1053, hypothetical protein): 0.47; fold_change (gene Sca_1134, hypothetical protein): 0.45; fold_change (gene Sca_1194, hypothetical protein): 0.48; fold_change (gene Sca_1195): 0.43; fold_change (gene Sca_1364 (leuS''), leucyl-tRNA synthetase (fragment 2)): 0.47; fold_change (gene Sca_1365 (leuS'), leucyl-tRNA synthetase (fragment 1)): 0.4; fold_change (gene Sca_1388, hypothetical protein): 0.46; fold_change (gene Sca_1421, hypothetical protein): 0.46; fold_change (gene Sca_1425, hypothetical protein): 0.45; fold_change (gene Sca_1427, hypothetical protein): 0.41; fold_change (gene Sca_1433, hypothetical protein): 0.44; fold_change (gene Sca_1450, hypothetical protein): 0.41; fold_change (gene Sca_1584, hypothetical protein): 0.47; fold_change (gene Sca_1777, hypothetical protein): 0.41; fold_change (gene Sca_1794, hypothetical protein): 0.43; fold_change (gene Sca_1832, hypothetical protein): 0.42; fold_change (gene Sca_1870, hypothetical protein): 0.45; fold_change (gene Sca_1880, hypothetical protein): 0.46; fold_change (gene Sca_1922, putative integral membrane efflux protein): 0.41; fold_change (gene Sca_1980, putative L-serine dehydratase beta chain): 0.42; fold_change (gene Sca_1997, hypothetical protein): 0.49; fold_change (gene Sca_2043, hypothetical protein): 0.46; fold_change (gene Sca_2184, hypothetical protein): 0.4; fold_change (gene Sca_2345, hypothetical protein): 0.41; fold_change (gene Sca_2346, putative capsular polysaccharide biosynthesis protein): 0.41; fold_change (gene Sca_2352, hypothetical protein): 0.48; fold_change (gene Sca_2411): 0.47; fold_change (gene apbA, putative 2-dehydropantoate 2-reductase): 0.47; fold_change (gene aspS, aspartyl-tRNA synthetase): 0.43; fold_change (gene atpD, F0F1 ATP synthase subunit beta): 0.41; fold_change (gene capB, capsular polysaccharide biosynthesis protein): 0.43; fold_change (gene ctaB, protoheme IX farnesyltransferase): 0.41; fold_change (gene cysE, serine acetyltransferase): 0.46; fold_change (gene deoD, purine nucleoside phosphorylase): 0.48; fold_change (gene engB (SCA_1279), ribosome biogenesis GTP-binding protein YsxC): 0.47; fold_change (gene fbp, putative fructose-bisphosphatase): 0.41; fold_change (gene fecB, putative ferrichrome ABC transporter (binding protein)): 0.42; fold_change (gene fruB, putative fructose 1-phosphate kinase): 0.42; fold_change (gene gcvH (gcdH), glycine cleavage system protein H): 0.45; fold_change (gene gcvPB' (gcvPB''), glycine dehydrogenase [decarboxylating] subunit 2(fragment 1)): 0.43; fold_change (gene gntR, putative gluconate operon transcriptional repressor): 0.47; fold_change (gene gudB, NAD-specific glutamate dehydrogenase): 0.47
